Data published in PMC8449129, “Single tracer-based protocol for broad-spectrum kinase profiling in live cells with NanoBRET” (STAR Protocols, 2021).

Tests used:
Experiment in all cases: cell-based
Set-up in all cases: NanoBRET live-cell target engagement; % occupancy from displacement of tracer K10 on NanoLuc-kinase fusions, mean n=3
Conditions in all cases: HEK293, read-out: % inhibition
CDK4 = CDK4 (Homo sapiens, UniProt P11802)
Procedure, shortened: (§1)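 Live-cell NanoBRET target engagement: cells expressing kinase–NanoLuc fusion with tracer treated with compound 2 h at 37 °C, 5% CO2. BRET read from donor (450 nm) and acceptor (610/630 nm) emission with 20 μM extracellular NanoLuc inhibitor; % occupancy calculated relative to tracer+DMSO and zero-BRET controls.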

CDKL1 = CDKL1 (Homo sapiens, UniProt Q00532)
Procedure, shortened: as §1

CLK2 = CLK2 (Homo sapiens, UniProt P49760)
Procedure, shortened: as §1

DCLK3 = DCLK3 (Homo sapiens, UniProt Q9C098)
Procedure, shortened: as §1

FYN = FYN (Homo sapiens, UniProt P06241)
Procedure, shortened: as §1

JNK3 = biological target: T1, JNK3 (Homo sapiens, UniProt P53779)
T1 construct: gene MAPK10
Procedure, shortened: as §1

LRRK2 = LRRK2 (Homo sapiens, UniProt Q5S007)
Procedure, shortened: as §1

MAP3K21 = MAP3K21 (Homo sapiens, UniProt Q5TCX8)
Procedure, shortened: as §1

MELK = MELK (Homo sapiens, UniProt Q14680)
Procedure, shortened: as §1

MYLK2 = MYLK2 (Homo sapiens, UniProt Q9H1R3)
Procedure, shortened: as §1

NEK3 = NEK3 (Homo sapiens, UniProt P51956)
Procedure, shortened: as §1

PAK4 = PAK4 (Homo sapiens, UniProt O96013)
Procedure, shortened: as §1

PHKG1 = PHKG1 (Homo sapiens, UniProt Q16816)
Procedure, shortened: as §1

PRKCE = PRKCE (Homo sapiens, UniProt Q02156)
Procedure, shortened: as §1

RIPK1 = RIPK1 (Homo sapiens, UniProt Q13546)
Procedure, shortened: as §1

RPS6KA4 = RPS6KA4 (Homo sapiens, UniProt O75676)
Procedure, shortened: as §1

SIK3 = SIK3 (Homo sapiens, UniProt Q9Y2K2)
Procedure, shortened: as §1

STK38 = STK38 (Homo sapiens, UniProt Q15208)
Procedure, shortened: as §1

STK38, sequence (Q15208 whole entry): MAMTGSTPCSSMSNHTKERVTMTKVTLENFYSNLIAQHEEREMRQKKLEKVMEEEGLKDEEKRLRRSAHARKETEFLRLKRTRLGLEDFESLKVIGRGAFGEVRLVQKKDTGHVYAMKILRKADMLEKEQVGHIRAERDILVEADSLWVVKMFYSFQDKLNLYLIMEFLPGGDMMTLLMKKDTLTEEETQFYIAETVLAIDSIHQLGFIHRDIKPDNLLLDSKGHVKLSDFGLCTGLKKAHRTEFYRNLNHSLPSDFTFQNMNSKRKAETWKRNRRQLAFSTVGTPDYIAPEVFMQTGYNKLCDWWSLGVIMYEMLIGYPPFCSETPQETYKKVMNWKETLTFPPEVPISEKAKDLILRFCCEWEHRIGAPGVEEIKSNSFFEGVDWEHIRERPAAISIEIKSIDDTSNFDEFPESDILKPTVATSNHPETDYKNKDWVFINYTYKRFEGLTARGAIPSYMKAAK
FYN, sequence (P06241 whole entry): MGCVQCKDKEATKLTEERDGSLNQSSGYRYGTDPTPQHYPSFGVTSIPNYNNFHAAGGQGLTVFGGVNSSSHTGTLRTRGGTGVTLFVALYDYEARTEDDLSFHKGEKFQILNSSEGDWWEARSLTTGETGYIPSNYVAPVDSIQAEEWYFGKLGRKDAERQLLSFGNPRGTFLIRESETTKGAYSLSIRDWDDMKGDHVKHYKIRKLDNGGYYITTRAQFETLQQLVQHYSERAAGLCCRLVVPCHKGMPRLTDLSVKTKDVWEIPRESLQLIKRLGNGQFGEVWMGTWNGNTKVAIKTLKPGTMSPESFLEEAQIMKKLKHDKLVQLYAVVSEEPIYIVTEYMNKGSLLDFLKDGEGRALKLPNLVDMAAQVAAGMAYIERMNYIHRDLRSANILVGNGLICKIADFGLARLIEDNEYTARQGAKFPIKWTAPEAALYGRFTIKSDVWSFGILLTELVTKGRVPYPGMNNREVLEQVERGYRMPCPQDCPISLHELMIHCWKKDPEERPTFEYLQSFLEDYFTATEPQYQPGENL
SIK3, sequence (Q9Y2K2 whole entry): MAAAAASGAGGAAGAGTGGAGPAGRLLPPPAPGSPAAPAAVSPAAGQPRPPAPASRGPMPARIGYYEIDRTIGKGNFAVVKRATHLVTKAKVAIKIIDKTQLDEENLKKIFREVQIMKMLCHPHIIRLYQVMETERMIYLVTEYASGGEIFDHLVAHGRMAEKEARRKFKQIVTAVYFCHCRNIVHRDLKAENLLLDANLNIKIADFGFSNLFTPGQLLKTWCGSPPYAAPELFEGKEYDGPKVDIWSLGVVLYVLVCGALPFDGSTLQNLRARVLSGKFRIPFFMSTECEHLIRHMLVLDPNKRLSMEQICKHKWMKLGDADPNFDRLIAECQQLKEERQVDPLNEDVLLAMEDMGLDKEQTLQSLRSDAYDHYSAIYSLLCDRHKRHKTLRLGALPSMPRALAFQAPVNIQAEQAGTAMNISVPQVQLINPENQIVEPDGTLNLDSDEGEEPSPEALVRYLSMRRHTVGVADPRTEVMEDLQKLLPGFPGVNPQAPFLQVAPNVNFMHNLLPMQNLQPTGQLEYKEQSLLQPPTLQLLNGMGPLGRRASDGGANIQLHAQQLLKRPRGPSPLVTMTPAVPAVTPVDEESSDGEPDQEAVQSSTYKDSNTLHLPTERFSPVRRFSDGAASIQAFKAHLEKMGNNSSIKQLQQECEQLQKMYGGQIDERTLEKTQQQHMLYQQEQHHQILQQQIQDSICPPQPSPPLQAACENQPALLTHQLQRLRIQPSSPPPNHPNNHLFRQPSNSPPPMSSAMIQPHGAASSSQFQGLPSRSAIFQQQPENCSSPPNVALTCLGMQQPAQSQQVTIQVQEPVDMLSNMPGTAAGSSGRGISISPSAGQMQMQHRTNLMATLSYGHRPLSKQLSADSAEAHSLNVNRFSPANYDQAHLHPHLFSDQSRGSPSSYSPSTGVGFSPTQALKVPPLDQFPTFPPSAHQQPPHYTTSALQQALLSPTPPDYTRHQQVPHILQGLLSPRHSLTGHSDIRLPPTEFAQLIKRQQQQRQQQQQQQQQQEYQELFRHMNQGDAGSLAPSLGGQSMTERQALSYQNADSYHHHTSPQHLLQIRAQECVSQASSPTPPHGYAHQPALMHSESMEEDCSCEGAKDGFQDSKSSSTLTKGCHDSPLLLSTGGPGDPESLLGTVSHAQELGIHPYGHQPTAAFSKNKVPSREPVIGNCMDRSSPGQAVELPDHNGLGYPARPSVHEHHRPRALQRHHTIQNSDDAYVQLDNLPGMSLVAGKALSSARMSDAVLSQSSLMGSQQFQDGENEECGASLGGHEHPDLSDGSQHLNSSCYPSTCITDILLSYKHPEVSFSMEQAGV
LRRK2, sequence (Q5S007 whole entry): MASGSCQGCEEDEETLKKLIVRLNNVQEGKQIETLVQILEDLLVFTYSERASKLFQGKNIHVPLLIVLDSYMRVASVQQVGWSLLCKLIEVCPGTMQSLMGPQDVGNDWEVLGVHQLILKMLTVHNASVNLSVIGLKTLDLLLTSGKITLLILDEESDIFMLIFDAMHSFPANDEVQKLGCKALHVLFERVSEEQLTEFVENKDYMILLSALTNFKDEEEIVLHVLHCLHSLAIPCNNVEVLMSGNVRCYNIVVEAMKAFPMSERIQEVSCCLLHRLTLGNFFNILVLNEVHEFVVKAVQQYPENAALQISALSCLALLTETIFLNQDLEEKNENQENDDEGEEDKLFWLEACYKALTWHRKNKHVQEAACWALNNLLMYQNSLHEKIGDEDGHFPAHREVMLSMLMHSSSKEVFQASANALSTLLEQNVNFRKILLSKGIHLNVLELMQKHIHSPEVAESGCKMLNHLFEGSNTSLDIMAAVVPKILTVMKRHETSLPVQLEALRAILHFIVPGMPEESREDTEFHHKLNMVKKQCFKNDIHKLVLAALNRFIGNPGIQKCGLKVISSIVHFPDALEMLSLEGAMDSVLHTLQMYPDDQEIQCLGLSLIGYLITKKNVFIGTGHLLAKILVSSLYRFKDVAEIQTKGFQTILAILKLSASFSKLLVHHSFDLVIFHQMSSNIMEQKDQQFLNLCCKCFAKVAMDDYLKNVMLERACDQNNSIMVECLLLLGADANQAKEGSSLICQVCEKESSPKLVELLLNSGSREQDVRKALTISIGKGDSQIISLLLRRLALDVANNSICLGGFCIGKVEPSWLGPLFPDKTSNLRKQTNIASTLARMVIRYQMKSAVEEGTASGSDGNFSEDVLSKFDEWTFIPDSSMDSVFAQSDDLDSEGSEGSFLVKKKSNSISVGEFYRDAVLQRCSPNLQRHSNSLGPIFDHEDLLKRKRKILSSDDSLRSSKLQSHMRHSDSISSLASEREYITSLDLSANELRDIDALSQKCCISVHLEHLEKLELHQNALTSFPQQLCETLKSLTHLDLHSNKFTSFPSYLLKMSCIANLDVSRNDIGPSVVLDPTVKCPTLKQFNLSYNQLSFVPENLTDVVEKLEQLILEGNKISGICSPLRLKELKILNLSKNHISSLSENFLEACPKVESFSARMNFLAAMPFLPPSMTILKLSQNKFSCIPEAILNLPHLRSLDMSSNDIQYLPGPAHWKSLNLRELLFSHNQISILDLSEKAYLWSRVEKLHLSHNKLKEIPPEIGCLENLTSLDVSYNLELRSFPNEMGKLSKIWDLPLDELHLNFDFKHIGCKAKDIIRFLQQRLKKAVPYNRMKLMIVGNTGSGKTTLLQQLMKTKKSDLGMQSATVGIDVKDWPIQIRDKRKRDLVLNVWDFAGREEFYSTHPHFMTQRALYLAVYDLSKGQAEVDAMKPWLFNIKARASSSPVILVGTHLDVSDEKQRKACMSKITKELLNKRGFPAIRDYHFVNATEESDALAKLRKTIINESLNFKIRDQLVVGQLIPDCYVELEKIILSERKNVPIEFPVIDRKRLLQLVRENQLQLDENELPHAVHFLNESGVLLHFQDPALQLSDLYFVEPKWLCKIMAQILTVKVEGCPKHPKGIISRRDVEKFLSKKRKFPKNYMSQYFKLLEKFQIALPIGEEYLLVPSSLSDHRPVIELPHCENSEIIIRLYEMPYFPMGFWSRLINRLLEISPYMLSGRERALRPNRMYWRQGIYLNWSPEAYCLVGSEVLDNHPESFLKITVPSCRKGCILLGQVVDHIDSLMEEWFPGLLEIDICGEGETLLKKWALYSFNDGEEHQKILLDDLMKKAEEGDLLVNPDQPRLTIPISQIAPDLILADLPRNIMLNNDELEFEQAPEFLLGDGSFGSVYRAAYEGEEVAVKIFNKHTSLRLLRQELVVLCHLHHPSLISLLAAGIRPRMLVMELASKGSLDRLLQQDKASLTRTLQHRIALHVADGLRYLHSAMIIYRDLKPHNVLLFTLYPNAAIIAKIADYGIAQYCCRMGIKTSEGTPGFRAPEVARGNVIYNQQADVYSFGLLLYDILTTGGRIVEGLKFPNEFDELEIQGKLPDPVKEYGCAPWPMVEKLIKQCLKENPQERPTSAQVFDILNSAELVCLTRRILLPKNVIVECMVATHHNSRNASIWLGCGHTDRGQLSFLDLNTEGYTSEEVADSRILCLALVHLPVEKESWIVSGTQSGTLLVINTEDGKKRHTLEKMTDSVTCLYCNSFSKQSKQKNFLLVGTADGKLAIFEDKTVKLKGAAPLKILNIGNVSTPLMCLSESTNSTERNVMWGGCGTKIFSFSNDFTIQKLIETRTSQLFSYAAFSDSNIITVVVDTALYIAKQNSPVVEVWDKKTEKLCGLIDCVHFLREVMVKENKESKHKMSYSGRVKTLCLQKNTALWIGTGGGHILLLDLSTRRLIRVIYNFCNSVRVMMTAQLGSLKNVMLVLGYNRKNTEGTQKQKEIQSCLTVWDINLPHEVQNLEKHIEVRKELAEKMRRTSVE

inhibition at 1 µM (CDK4): 4%
inhibition at 1 µM (CDKL1): 2%
inhibition at 1 µM (CLK2): 1%
inhibition at 1 µM (DCLK3): 0%
inhibition at 1 µM (FYN): -2%
inhibition at 1 µM (JNK3): -4%
inhibition at 1 µM (LRRK2): -9%
inhibition at 1 µM (MAP3K21): 3%
inhibition at 1 µM (MELK): -2%
inhibition at 1 µM (MYLK2): -16%
inhibition at 1 µM (NEK3): -2%
inhibition at 1 µM (PAK4): 1%
inhibition at 1 µM (PHKG1): -3%
inhibition at 1 µM (PRKCE): -6%
inhibition at 1 µM (RIPK1): 23%
inhibition at 1 µM (RPS6KA4): -11%
inhibition at 1 µM (SIK3): 0%
inhibition at 1 µM (STK38): 1%
Compound: C[C@@H](Oc1cc(-c2cnn(C3CCNCC3)c2)cnc1N)c1c(Cl)ccc(F)c1Cl [crizotinib]
